System: S6-M19-SAM sensor (RNA, riboswitch) GGGAGAUAGAGCAUCCGAUAACUUCGGUUAUUGGAUGGAUCAGACUCCUUCGGGAGUUUGAUCGGGCCUGAAGCCUCCACGGGCCCCUCUGUCUCCCACAGCUUGGACGAGCUGAAGGAGGCACGGCUCCCCAUCAAGGACGGGUCCAAUGGUCCGCUUCGGCGGAUCAUUGUUGAGUAGAGUGUGAGGAUGGGCCGGGGGAACUUCGGUUCCCGAAAGGACCGGUCGAAGGGACGGUGCGGAGAGGAGAGACUGGGAUGCCUUGUAACCGGGUCUAAGUUGU
Assay: FRET dose-response (Spinach/DFHBI-1T to Mango/YO3-biotin)
Settings: 125 mM KCl, 1 mM MgCl2; assembly buffer; 50 nM RNA, 1 µM DFHBI-1T, 1.7 µM YO3-biotin; SAM 1 µM to 2.5 mM; apparent

Structure (SMILES): C[S+](CC[C@H](N)C(=O)O)C[C@H]1O[C@@H](n2cnc3c(N)ncnc32)[C@H](O)[C@@H]1O (stereo partly shown)
- EC50: 17 µM

Source: paper PMC5750238 (2018)
